We go through 1 compound from US10479789B2, “Pyrido[1,2-A]pyrimidone analog, crystal form thereof, intermediate thereof and preparation method therefor” (Chia Tai Tianqing Pharmaceutical Group Co., Ltd., priority 2015, dated 2019).

The test concerns human colon cancer CO-04-0032. Briefly: In vivo pharmacodynamics, subcutaneous xenograft tumor model of human colon cancer CO-04-0032. Also on record: species or system BALB/c nude mice. The protocol:
The studies were conducted to examine if the test drugs have in vivo efficacy in the human colon cancer CO-04-0032 animal model and the gastric cancer ST-02-0013 animal model. The descriptions about the animal feeding, feed ingredients, experimental observation, experimental indexes, experimental termination, as well as data analysis in the tests were as follows:
Animal Grouping: The animals were weighed and the tumor volume was measured prior to administration. The animals were randomly grouped according to tumor volume (randomized block design).
Experimental Indexes: The experimental indexes were used to examine whether tumor growth is inhibited, delayed or cured. Tumor diameter was measured twice a week with a vernier caliper. The tumor volume was calculated by the formula: V=0.5a×b^2, wherein a and b represent the long diameter and short diameter of a tumor, respectively. Tumor growth inhibition (TGI) of a compound was evaluated with T-C (day) and T/C (%). […]
Data Analysis: One-way ANOVA was used for comparison of three or more groups. […] All data was analyzed using SPSS 17.0. p<0.05 indicated a significant difference. […]

For `COc1ncc(-c2ccc3ncc(OCCN(C)C)c(=O)n3c2)cc1NS(=O)(=O)c1ccc(F)cc1Cl` [Compound 1], the “anti-tumor activity compared to the positive control drug BKM120” value (colon cancer CO-04-0032) is reported as “more excellent anti-tumor activity”. The “increase in tumor volume” value (from day 15 to day 30 of the administration, CO-04-0032) is reported as “almost no increase in tumor volume”.
